Where a name gives a salt, the structure may show the parent alone. Read-outs that look alike come from different tables or passages of the source.

Data on twelve compounds can be found in publication PMC3827198, “Characterisation of AmphiAmR11, an Amphioxus (Branchiostoma floridae) D2-Dopamine-Like G Protein-Coupled Receptor” (PLoS ONE, 2013).

For one assay, the system named is D2-dopamine receptors. Details: method as in PMID 10531409, PMID 9572301. As to conditions: cited from earlier work.
A further assay concerns D3-dopamine receptors. On the set-up: method as in PMID 10531409, PMID 9572301. To be noted: cited from earlier work.
Assay [1] addresses T1, AmphiAmR11 (Branchiostoma floridae, UniProt A0PF35). In words: Block of tyramine-induced inhibition of forskolin-stimulated cAMP levels in AmphiAmR11-expressing CHO-K1 cells. As to conditions: 30 nM tyramine; for Block of tyramine-induced inhibition of forskolin-stimulated cAMP levels: 10 µM forskolin. It counts as cell-based. (Changes in cAMP serve as a functional read-out for many G protein-coupled receptors.)

Assay [2] concerns the target T1, AmphiAmR11. In words: ERK1/2 phosphorylation in AmphiAmR11-expressing CHO-K1 cells (Western blotting). It counts as cell-based. To be noted: for Effect of antagonist on ERK1/2 phosphorylation in the absence of dopamine: 1 μM antagonist. For orientation: A western blot detects proteins with antibodies after separation by electrophoresis.
Assay [3] deals with T1, AmphiAmR11. In words: Block of dopamine-induced ERK1/2 activation in AmphiAmR11-expressing CHO-K1 cells by antagonists. It is filed as cell-based. To be noted: 1 µM antagonist, 10 nM dopamine, 5 min.
In a further assay the test system is DD2R. On the set-up: method as in PMID 12391323. To be noted: cited from earlier work; for Antagonist effect at invertebrate D2-like receptor DD2R at high concentration: 10 µM.
The next assay deals with CeDOP2S. On the set-up: method as in PMID 12887685. To be noted: cited from earlier work; for Antagonist effect at invertebrate D2-like receptor CeDOP2S at high concentration: 10 µM.
The next assay concerns CeDOP2L. Details: method as in PMID 12887685. As to conditions: cited from earlier work; for Antagonist effect at invertebrate D2-like receptor CeDOP2L at high concentration: 10 µM.
Assay [4] has as its target T1, AmphiAmR11. Nature of the assay: Inhibition of forskolin-stimulated cAMP levels in AmphiAmR11-expressing CHO-K1 cells (agonist mode). It is filed as cell-based. To be noted: for Decrease of forskolin-stimulated cAMP levels by antagonist in the absence of agonist: 1 μM antagonist; for Agonist type at AmphiAmR11 (full or partial): cAMP assay; for Inhibition of forskolin-stimulated cAMP levels (maximal): concentration-response curves, absence of other agonist.
Description: CHO-K1 cells were maintained in Ham’s F-12 nutrient media (Invitrogen Life Sciences) supplemented with 10% charcoal-stripped foetal bovine serum (CS-FBS) (Hyclone, Cramlington, UK), 50 U/μg penicillin/streptomycin and 4 mM L-glutamine (Invitrogen Life Sciences) in 5% CO2 at 37°C. Stably transfected cell lines were generated by the transfection of CHO-K1 cells using Lipofectamine (Invitrogen Life Sciences) as described previously [8, 9].
cAMP levels in stably transfected CHO-K1 cells were determined as described previously [8, 9, 21], except 100 µM isobutylmethylxanthine (IBMX) was used. cAMP levels are represented as a percentage of basal samples unless otherwise stated. Student’s T-test (two-tailed and unpaired) was used to test for significance. Unless otherwise stated, all data are shown as mean ± SEM. Each data point plotted was the mean of data obtained from at least three experiments. Within each experiment three separate replicate wells were analysed for each condition and the cAMP assays on each of the wells was carried out in duplicate.
Forskolin was used both to increase basal cAMP levels to make it easier to detect increases and decreases in cAMP levels in the same experiments and also to potentiate responses to agonists to more accurately determine their threshold effects [see 22]. A non-saturating 10 µM concentration of forskolin was used.
Figure 1 Effect of biogenic amines and synthetic agonists on forskolin-stimulated cAMP levels in AmphiAmR11-expressing CHO-K1 cells. Cells were pre-incubated with 100 µM IBMX for 20 min, followed by incubation with 10 µM forskolin and 100 µM IBMX in the presence of increasing concentrations of various biogenic amines (A) or synthetic agonists (B) for a further 20 min. Data are expressed as the mean ± SEM. n ≥ 3.

In assay [5] the target is T1, AmphiAmR11. In words: cell-based. It is filed as cell-based.
Assay [6] deals with T1, AmphiAmR11. Nature of the assay: Calcium mobilisation in AmphiAmR11-expressing CHO-K1 cells (Fura-2, percentage of responding cells per field of view). As to conditions: 10 nM biogenic amine, compared with dopamine. It counts as cell-based. The method, then: Stably transfected CHO-K1 cells were assayed for changes in intracellular calcium levels using an Olympus Cell^R imaging system and the fluorescent indicator Fura-2, as described previously, with modifications described by Bayliss et al.. At 1 minute into the experiment, a buffer control was added and at 2 minutes into the experiment, the specified concentration of agonist was added. A single coverslip of cells was used per concentration of agonist and the percentage of cells that responded per field of view was calculated. The results from each coverslip gave an n of 1 and each agonist concentration was repeated at least three times on different days.
Figure 6 Effect of biogenic amines and calcium pathway inhibitors on calcium mobilisation in AmphiAmR11-expressing CHO-K1 cells. AmphiAmR11-expressing cells were exposed to increasing concentrations (A) or 10 nM (B) of biogenic amines for 3 minutes and the number of responding cells per field of view were calculated. Data are expressed as the mean ± SEM. n ≥ 3. FOV, field of view; DA, dopamine; TA, tyramine; NA, noradrenaline; Adr, adrenaline; OA, octopamine.

In another assay the test system is human 5HT1A receptor. To be noted: cited from earlier work.
A further assay deals with AmphiAmR4. Details: method as in PMID 23183848. As to conditions: cited from earlier work.
[7] abbreviates: 10 µM forskolin, 100 µM IBMX, 20 min, full concentration response curves, read-out: EC50 for decrease in forskolin-stimulated cAMP levels.
The mark [8] stands for this setting: amines at 100 µM, pertussis toxin 200 ng/mL, 16 hours.

T1 sequence (A0PF35 entry or part of it): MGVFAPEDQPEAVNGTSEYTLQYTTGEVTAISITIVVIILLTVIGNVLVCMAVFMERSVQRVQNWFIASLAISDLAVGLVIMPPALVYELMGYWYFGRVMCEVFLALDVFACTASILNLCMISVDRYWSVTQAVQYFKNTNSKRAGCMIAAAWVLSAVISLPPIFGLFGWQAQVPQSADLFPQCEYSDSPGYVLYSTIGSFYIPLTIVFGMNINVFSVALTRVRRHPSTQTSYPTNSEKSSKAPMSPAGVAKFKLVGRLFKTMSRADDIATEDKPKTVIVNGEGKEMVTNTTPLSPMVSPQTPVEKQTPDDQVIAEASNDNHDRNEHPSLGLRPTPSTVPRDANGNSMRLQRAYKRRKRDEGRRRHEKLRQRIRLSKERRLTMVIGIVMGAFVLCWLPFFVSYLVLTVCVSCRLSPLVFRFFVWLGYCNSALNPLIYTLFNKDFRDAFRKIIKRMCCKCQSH

Turning to `COC[C@H]1OC(=O)c2coc3c2[C@@]1(C)C1=C(C3=O)[C@@H]2CCC(=O)[C@@]2(C)C[C@H]1OC(C)=O` [wortmannin], the “Effect on D2-mediated ERK1/2 activation in CHO cells” value with D2-dopamine receptors is listed as “partially reduce”. In the assay with D3-dopamine receptors, the “Effect on D3-mediated ERK1/2 activation in CHO cells” value is reported as “partially reduce”.
Take `CC(C)(C)[C@]1(O)CCN2C[C@H]3c4ccccc4CCc4cccc(c43)[C@@H]2C1` [butaclamol, (+)-butaclamol hydrochloride]: the “Block of tyramine-induced inhibition of forskolin-stimulated cAMP levels” value on AmphiAmR11 [1] (1 μM antagonist) is reported as “no significant blocking effect”. For the same compound, the “Effect of antagonist on ERK1/2 phosphorylation in the absence of dopamine” value (shortened to “Effect of antagonist”) on AmphiAmR11 [2] is reported as “did not exhibit any agonistic properties”. The “Block of dopamine-induced ERK1/2 activation” value at AmphiAmR11 [3] is listed as “no significant effect”. In addition, the “Antagonist effect at invertebrate D2-like receptor DD2R at high concentration” value in the assay with DD2R is recorded as “only a partial effect”. Further, in the assay on CeDOP2S, the “Antagonist effect at invertebrate D2-like receptor CeDOP2S at high concentration” value is on record as “only a partial effect”. Besides, the “Antagonist effect at invertebrate D2-like receptor CeDOP2L at high concentration” value with CeDOP2L was “only a partial effect”.
For `Cl.Cl.OCCN1CCN(CC/C=C2/c3ccccc3Sc3ccc(C(F)(F)F)cc32)CC1` [flupenthixol, cis-(Z)-flupenthixol dihydrochloride], the “Block of tyramine-induced inhibition of forskolin-stimulated cAMP levels” value on AmphiAmR11 [1] (1 μM antagonist) is listed as “no significant blocking effect”. The “Effect of antagonist” value at AmphiAmR11 [2] is recorded as “did not exhibit any agonistic properties”. On AmphiAmR11 [3], the “Block of dopamine-induced ERK1/2 activation” value was “no significant effect”. In addition, in the assay on DD2R, the “Antagonist effect at invertebrate D2-like receptor DD2R at high concentration” value is given as “only a partial effect”. In addition, in the assay with CeDOP2S, the “Antagonist effect at invertebrate D2-like receptor CeDOP2S at high concentration” value is “only a partial effect”. In addition, the “Antagonist effect at invertebrate D2-like receptor CeDOP2L at high concentration” value in the assay on CeDOP2L is on record as “only a partial effect”.
One may read the EC50 as the concentration that produces a half-maximal response. The compound `CNC[C@H](O)c1ccc(O)c(O)c1` [adrenaline, (-)-adrenaline] gave an EC50 at AmphiAmR11 [4] of 1340 nM. At AmphiAmR11 [5], the “Concentration dependence of increase in forskolin-stimulated cAMP levels following pertussis toxin” value was “concentration-dependent effects”, the “Concentrations coupling AmphiAmR11 to an increase in cAMP levels” value was “above 1 µM” and the “Effect on forskolin-stimulated cAMP levels following pertussis toxin treatment” value is on record as “increase in forskolin-stimulated cAMP levels”. The “Effect on ERK1/2 phosphorylation at 10 nM” value (“Effect … at 10 nM” below) at AmphiAmR11 [2] is “not able to increase”. Further, the “Calcium response at 10 nM” value at AmphiAmR11 [6] was “less effective than dopamine”.
On to `COC(=O)[C@@H]1[C@H]2C[C@H]3c4[nH]c5ccccc5c4CCN3C[C@@H]2CC[C@@H]1O` [yohimbine, yohimbine hydrochloride], for which, at AmphiAmR11 [4], the EC50 was determined as 17.1 nM, the “Agonist type at AmphiAmR11 (full or partial)” value is “full agonists” and the “Inhibition of forskolin-stimulated cAMP levels (maximal)” value is “greater than 90%”. Also, the “Decrease of forskolin-stimulated cAMP levels by antagonist in the absence of agonist” value on AmphiAmR11 [4] (10 µM forskolin) was “could inhibit forskolin-stimulated cAMP levels”. On AmphiAmR11 [1] (1 μM antagonist), the “Apparent enhancement of tyramine-induced inhibition of forskolin-stimulated cAMP levels” value is on record as “appeared to enhance” and the “Block of tyramine-induced inhibition of forskolin-stimulated cAMP levels” value was “no significant blocking effect”. The “Blocking effect on tyramine-induced response at reduced antagonist concentrations” value at AmphiAmR11 [1] (varying concentrations of antagonist) is recorded as “no blocking effect”. The “Effect of antagonist” value on AmphiAmR11 [2] was “increase in ERK1/2 phosphorylation”. Moreover, at AmphiAmR11 [3], the “Block of dopamine-induced ERK1/2 activation” value was “no significant effect”. Further, in the assay with human 5HT1A receptor, the “Agonist activity at human 5HT1A receptor” value was “partial agonist activity”.
Regarding `NCC(O)c1ccc(O)cc1` (racemic) [octopamine, (±)-p-octopamine hydrochloride], at AmphiAmR11 [4] (setting [7]), the concentration giving a half-maximal response (EC50) turned out to be 1300 nM. The “Effect on forskolin-stimulated cAMP levels following pertussis toxin treatment” value at AmphiAmR11 [5] (setting [8]) is given as “did not induce an increase”. Further, the “Effect … at 10 nM” value at AmphiAmR11 [2] (10 nM biogenic amine, 5 min) was “not able to increase”. Moreover, at AmphiAmR11 [6], the “Calcium response at 10 nM” value is listed as “less effective than dopamine”.
On to `NC[C@H](O)c1ccc(O)c(O)c1` [noradrenaline, (-)-noradrenaline hydrochloride], for which, on AmphiAmR11 [4], the half-maximal effective concentration (EC50) turned out to be 844 nM. Further, the “Concentrations coupling AmphiAmR11 to an increase in cAMP levels” value at AmphiAmR11 [5] (after pertussis toxin) is “above 1 µM”. In addition, at AmphiAmR11 [5] (setting [8]), the “Effect on forskolin-stimulated cAMP levels following pertussis toxin treatment” value is “increase in forskolin-stimulated cAMP levels”. For the same compound, on AmphiAmR11 [5] (pertussis toxin 200 ng/mL, 16 h, up to 100 µM), the “Concentration dependence of increase in forskolin-stimulated cAMP levels following pertussis toxin” value is listed as “concentration-dependent effects”. For the same compound, the “Effect … at 10 nM” value at AmphiAmR11 [2] (10 nM biogenic amine, 5 min) was “not able to increase”. Moreover, the “Calcium response at 10 nM” value at AmphiAmR11 [6] is “less effective than dopamine”.
Consider `CN1CCc2cc(Cl)c(O)cc2[C@@H](c2ccccc2)C1` [SCH23390, R(+)-7-chloro-8-hydroxy-3-methyl-1-phenyl-2,3,4,5-tetrahydro-^1H-3-benzazepine hydrochloride], for which, on AmphiAmR11 [1] (1 μM antagonist), the “Block of tyramine-induced inhibition of forskolin-stimulated cAMP levels” value is reported as “no significant blocking effect”. In addition, the “Effect on dopamine-mediated signalling via DD2R” value in the assay with DD2R was “not to affect”. In the assay with CeDOP2S, the “Effect on dopamine-mediated signalling via CeDOP2S” value is “not to affect”. The “Effect on dopamine-mediated signalling via CeDOP2L” value in the assay on CeDOP2L is on record as “not to affect”.
For `COC(=O)[C@H]1[C@H]2C[C@H]3c4[nH]c5ccccc5c4CCN3C[C@H]2CC[C@@H]1O` [rauwolscine, rauwolscine hydrochloride], on AmphiAmR11 [4], the midpoint of the response, the EC50, lay at 121 nM; the “Agonist type at AmphiAmR11 (full or partial)” value is “full agonists”; the “Inhibition of forskolin-stimulated cAMP levels (maximal)” value was “greater than 90%”. Further, at AmphiAmR11 [4] (10 µM forskolin), the “Decrease of forskolin-stimulated cAMP levels by antagonist in the absence of agonist” value is on record as “could inhibit forskolin-stimulated cAMP levels”. The “Block of tyramine-induced inhibition of forskolin-stimulated cAMP levels” value at AmphiAmR11 [1] (1 μM antagonist) is “no significant blocking effect”. Also, the “Effect of antagonist” value at AmphiAmR11 [2] was “increase in ERK1/2 phosphorylation”. For the same compound, the “Block of dopamine-induced ERK1/2 activation” value at AmphiAmR11 [3] was “no significant effect”. The “Agonist activity at human 5HT1A receptor” value with human 5HT1A receptor is reported as “partial agonist activity”.
Consider `c1ccc2c(CC3=NCCN3)cccc2c1` [naphazoline, naphazoline hydrochloride], for which the “Effect on forskolin-stimulated cAMP levels at 1 µM” value on AmphiAmR11 [4] (1 µM agonist, 10 µM forskolin, 100 µM IBMX, 20 min) is on record as “most effective agonists”. Moreover, the EC50 on AmphiAmR11 [4] (setting [7]) was determined as 0.287 nM. On AmphiAmR11 [2] (100 nM synthetic agonist, 5 min), the “Effect on ERK1/2 phosphorylation at 100 nM” value is recorded as “increased the ERK1/2 phosphorylation level above that of the basal condition”. The “Effect on ERK1/2 phosphorylation at 1 µM” value on AmphiAmR11 [2] (1 µM synthetic agonist, 5 min, dopamine as reference) is on record as “most effective of the synthetic agonists”. In the assay with AmphiAmR4, the “Agonist activity at AmphiAmR4” value is reported as “most potent agonist”.
In the case of `O=C(CCCN1CCC2(CC1)C(=O)NCN2c1ccccc1)c1ccc(F)cc1` [spiperone, spiperone hydrochloride], the “Effect of antagonist” value at AmphiAmR11 [2] is “did not exhibit any agonistic properties”. Also, the “Block of dopamine-induced ERK1/2 activation” value at AmphiAmR11 [3] is “no significant effect”. For the same compound, in the assay on DD2R, the “Effect on dopamine-mediated signalling via DD2R” value is listed as “little or no effect”. Moreover, the “Effect on dopamine-mediated signalling via CeDOP2S” value with CeDOP2S was “little or no effect”. Further, in the assay on CeDOP2L, the “Effect on dopamine-mediated signalling via CeDOP2L” value is reported as “little or no effect”.
For the compound `CN(C)CCCN1c2ccccc2Sc2ccc(Cl)cc21` [chlorpromazine], the “Effect on dopamine-mediated signalling via DD2R” value in the assay with DD2R is on record as “not to affect”. The “Effect on dopamine-mediated signalling via CeDOP2S” value in the assay on CeDOP2S is reported as “not to affect”. Further, in the assay on CeDOP2L, the “Effect on dopamine-mediated signalling via CeDOP2L” value is on record as “not to affect”.
